Data reported in US8026243B2, “[4,5′]Bipyrimidinyl-6,4′-diamine derivatives as protein kinase inhibitors” (Novartis AG, priority 2006, dated 2011).

These compounds were tested against T1, Ba/F3-TEL-FGFR3 cells (Homo sapiens, UniProt P22607) (assay: FGFR3 cellular assay: proliferation of transformed Ba/F3-TEL-FGFR3 cells (AlamarBlue)). Conditions: 48 hours incubation, class symbols.
T1 construct: fused on or other part: The N-terminal oligomerising part of TEL (ETV6) is fused before the intracellular kinase part of FGFR3; P41212 (Transcription factor ETV6)
T1 sequence (P22607 whole entry, change not shown, the tested form may be a part): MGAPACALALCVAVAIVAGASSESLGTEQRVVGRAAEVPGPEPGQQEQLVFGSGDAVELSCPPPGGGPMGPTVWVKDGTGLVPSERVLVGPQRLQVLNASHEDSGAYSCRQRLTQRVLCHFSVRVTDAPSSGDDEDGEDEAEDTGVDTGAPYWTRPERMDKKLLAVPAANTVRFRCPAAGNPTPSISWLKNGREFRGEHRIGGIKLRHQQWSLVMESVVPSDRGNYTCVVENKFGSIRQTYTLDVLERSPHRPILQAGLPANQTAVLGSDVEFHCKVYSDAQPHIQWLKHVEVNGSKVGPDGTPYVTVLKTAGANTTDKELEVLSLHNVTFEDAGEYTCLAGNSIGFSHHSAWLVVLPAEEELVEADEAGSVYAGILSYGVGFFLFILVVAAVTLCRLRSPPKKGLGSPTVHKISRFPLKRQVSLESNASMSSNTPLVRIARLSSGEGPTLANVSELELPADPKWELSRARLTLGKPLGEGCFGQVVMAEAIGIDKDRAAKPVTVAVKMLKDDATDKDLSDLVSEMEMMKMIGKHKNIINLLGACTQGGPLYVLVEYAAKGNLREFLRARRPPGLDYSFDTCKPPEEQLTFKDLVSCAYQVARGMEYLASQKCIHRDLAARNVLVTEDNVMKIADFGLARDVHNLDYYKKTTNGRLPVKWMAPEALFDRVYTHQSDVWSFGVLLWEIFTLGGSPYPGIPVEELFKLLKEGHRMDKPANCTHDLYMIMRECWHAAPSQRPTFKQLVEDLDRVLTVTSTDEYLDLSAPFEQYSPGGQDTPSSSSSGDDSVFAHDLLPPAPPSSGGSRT
Type: cell-based
Description: Compounds of the invention are tested for their ability to inhibit transformed Ba/F3-TEL-FGFR3 cells proliferation, which is dependent on FGFR3 cellular kinase activity. Ba/F3-TEL-FGFR3 are cultured up to 800,000 cells/mL in suspension, with RPMI 1640 supplemented with 10% fetal bovine serum as the culture medium. Cells are dispensed into 384-well format plate at 5000 cell/well in […], culture medium. Compounds of the invention are dissolved and diluted in dimethylsulfoxide (DMSO). Twelve points 1:3 serial dilutions are made into DMSO to create concentrations gradient ranging typically from 10 mM to 0.05 μM. Cells are added with 50 nL of diluted compounds and incubated for 48 hours in cell culture incubator. AlamarBlue® (TREK Diagnostic Systems), which can be used to monitor the reducing environment created by proliferating cells, are added to cells at final concentration of 10%. After additional four hours of incubation in a 37° C. cell culture incubator, fluorescence signals from reduced AlamarBlue® (Excitation at 530 nm, Emission at 580 nm) are quantified on Analyst GT (Molecular Devices Corp.). IC50 values are calculated by linear regression analysis of the percentage inhibition of each compound at 12 concentrations.

| Compound | GI50 |
| --- | --- |
| COc1cc(OC)c(Cl)c(Nc2ncncc2-c2cc(Nc3ccc(N4CCOCC4)cc3)ncn2)c1Cl [Compound 11, N4′-(2,6-Dichloro-3,5-dimethoxy-phenyl)-N6-(4-morpholin-4-yl-phenyl)-[4,5′]bipyrimidinyl-6,4′-diamine] | < 100 nM |
| COc1cc(OC)c(Cl)c(Nc2ncncc2-c2cc(NCCN3CCN(C)CC3)ncn2)c1Cl [Compound 14, N4′-(2,6-Dichloro-3,5-dimethoxy-phenyl)-N6-[2-(4-methyl-piperazin-1-yl)-ethyl]-[4,5′]bipyrimidinyl-6,4′-diamine] | 250 to 500 nM |
| COc1cc(OC)c(F)c(Nc2ncncc2-c2cc(Nc3ccc(C(C)O)cn3)ncn2)c1F (centres unmarked) [Compound 80, 1-{6-[4′-(2,6-Difluoro-3,5-dimethoxy-phenylamino)-[4,5′]bipyrimidinyl-6-ylamino]-pyridin-3-yl}-ethanol] | < 100 nM |
| COc1cc(OC)c(Cl)c(Nc2ncncc2-c2cc(Nc3cc(CCN4CCOCC4)ccn3)ncn2)c1F [Compound 56, N4′-(2-Chloro-6-fluoro-3,5-dimethoxy-phenyl)-N6-[4-(2-morpholin-4-yl-ethyl)-pyridin-2-yl]-[4,5′]bipyrimidinyl-6,4′-diamine] | < 100 nM |
| CCNC(=O)c1cc(OC)c(Cl)c(Nc2ncncc2-c2cc(Nc3ccc(CCN4CCOCC4)cn3)ncn2)c1Cl [Compound 32, 2,4-Dichloro-N-ethyl-5-methoxy-3-{6-[5-(2-morpholin-4-yl-ethyl)-pyridin-2-ylamino]-[4,5′]bipyrimidinyl-4′-yl-amino}-benzamide] | 100 to 250 nM |
| COc1cc(OC)c(Cl)c(Nc2ncncc2-c2cc(Nc3ccc(CCN4CCOCC4)cn3)ncn2)c1Cl [Compound 18, N4′-(2,6-Dichloro-3,5-dimethoxy-phenyl)-N6-[5-(2-morpholin-4-yl-ethyl)-pyridin-2-yl]-[4,5′]bipyrimidinyl-6,4′-diamine] | < 100 nM |
| COc1cc(OC)c(Cl)c(Nc2ncncc2-c2cc(Nc3ccc(CN4CCCC4)cn3)ncn2)c1Cl [Compound 2, N4′-(2,6-Dichloro-3,5-dimethoxy-phenyl)-N6-(5-pyrrolidin-1-ylmethyl-pyridin-2-yl)-[4,5′]bipyrimidinyl-6,4′-diamine] | < 100 nM |
| CCN1CCN(Cc2ccc(Nc3cc(-c4cncnc4Nc4c(Cl)c(OC)cc(OC)c4Br)ncn3)nc2)CC1 [Compound 50, N4′-(2-Bromo-6-chloro-3,5-dimethoxy-phenyl)-N6-[5-(4-ethyl-piperazin-1-ylmethyl)-pyridin-2-yl]-[4,5′]bipyrimidinyl-6,4′-diamine] | < 100 nM |
| COc1cc(OC)c(F)c(Nc2ncncc2-c2cc(Nc3ccc(CN4CCN(CCO)CC4)cn3)ncn2)c1F [Compound 74, 2-(4-{6-[4′-(2,6-Difluoro-3,5-di-methoxy-phenylamino)-[4,5′]bipyrimidinyl-6-ylamino]-pyridin-3-ylmethyl}-piperazin-1-yl)-ethanol] | < 100 nM |
| COc1cc(OC)c(Cl)c(Nc2ncncc2-c2cc(Nc3ccc(C(C)O)cn3)ncn2)c1F (centres unmarked) [Compound 79, 1-{6-[4′-(2-Chloro-6-fluoro-3,5-dimethoxy-phenylamino)-[4,5′]bipyrimidinyl-6-ylamino]-pyridin-3-yl}-ethanol] | < 100 nM |
| CCN1CCN(c2ccc(Nc3cc(-c4cncnc4Nc4c(Cl)c(OC)cc(OC)c4Cl)ncn3)nc2)CC1 [Compound 40, N4′-(2,6-Dichloro-3,5-dimethoxy-phenyl)-N6-[5-(4-ethyl-piperazin-1-yl)-pyridin-2-yl]-[4,5′]bipyrimidinyl-6,4′-diamine] | < 100 nM |
| CCN1CCN(Cc2ccc(NC(=O)c3cc(OC)c(Cl)c(Nc4ncncc4-c4cc(Nc5ccc(CN6CCOCC6)cn5)ncn4)c3Cl)cc2C(F)(F)F)CC1 [Compound 93, 2,4-dichloro-N-(4-((4-ethylpiperazin-1-yl)methyl)-3-(trifluoromethyl)phenyl)-5-methoxy-3-(6-(5-(morpholinomethyl)pyridin-2-ylamino)-4,5′-bipyrimidin-4′-ylamino)benzamide] | < 100 nM |
| COc1cc(OC)c(Br)c(Nc2ncncc2-c2cc(Nc3cc(CN4CCOCC4)ccn3)ncn2)c1Cl [Compound 51, N4′-(2-Bromo-6-chloro-3,5-dimethoxy-phenyl)-N6-(4-morpholin-4-ylmethyl-pyridin-2-yl)-[4,5′]bipyrimidinyl-6,4′-diamine] | < 100 nM |
| CCN1CCN(c2ccc(Nc3cc(-c4cncnc4Nc4c(Cl)c(OC)cc(OC)c4Br)ncn3)nc2)CC1 [Compound 47, N4′-(2-Bromo-6-chloro-3,5-dimethoxy-phenyl)-N6-[5-(4-ethyl-piperazin-1-yl)-pyridin-2-yl]-[4,5′]bipyrimidinyl-6,4′-diamine] | < 100 nM |
| COc1cc(Nc2ncncc2-c2cc(Nc3ccc(CN4CCN(C(=O)CO)CC4)cn3)ncn2)c(F)c(OC)c1 [Compound 90] | < 100 nM |
| COc1cc(OC)c(Cl)c(Nc2ncncc2-c2cc(Nc3cc(CN4CCOCC4)ccn3)ncn2)c1F [Compound 46, N4′-(2-Chloro-6-fluoro-3,5-dimethoxy-phenyl)-N6-(4-morpholin-4-ylmethyl-pyridin-2-yl)-[4,5′]bipyrimidinyl-6,4′-diamine] | < 100 nM |
| COc1cc(OC)c(Cl)c(Nc2ncncc2-c2cc(Nc3cccc(C(C)O)c3)ncn2)c1Cl (centres unmarked) [Compound 29, 1-{3-[4′-(2,6-Dichloro-3,5-dimethoxy-phenylamino)-[4,5′]bipyrimidinyl-6-ylamino]-phenyl}-ethanol] | < 100 nM |
| COc1cc(Nc2ncncc2-c2cc(Nc3ccc(CN4CCN(CCO)CC4)cn3)ncn2)c(F)c(OC)c1 [Compound 70, 2-(4-{6-[4′-(2-Fluoro-3,5-dimethoxy-phenylamino)-[4,5′]bipyrimidinyl-6-ylamino]-pyridin-3-ylmethyl}-piperazin-1-yl)-ethanol] | < 100 nM |
| CCN1CCN(c2ccc(Nc3cc(-c4cncnc4Nc4c(F)c(OC)cc(OC)c4Cl)ncn3)cc2)CC1 [Compound 59, N4′-(2-Chloro-6-fluoro-3,5-di-methoxy-phenyl)-N6-[4-(4-ethyl-piperazin-1-yl)-phenyl]-[4,5′]bipyrimidinyl-6,4′-diamine] | < 100 nM |
| CCNC(=O)c1cc(OC)c(Cl)c(Nc2ncncc2-c2cc(Nc3ccc(CN4CCN(C)CC4)cn3)ncn2)c1Cl [Compound 34, 2,4-Dichloro-N-ethyl-5-methoxy-3-{6-[5-(4-methyl-piperazin-1-ylmethyl)-pyridin-2-ylamino]-[4,5′]bipyrimidinyl-4′-ylamino}-benzamide] | 250 to 500 nM |
| COc1cc(C(=O)Nc2cccc(C(F)(F)F)c2)c(Cl)c(Nc2ncncc2-c2cc(Nc3ccc(CN4CCOCC4)cn3)ncn2)c1Cl [Compound 92, 2,4-dichloro-5-methoxy-3-(6-(5-(morpholinomethyl)pyridin-2-ylamino)-4,5′-bipyrimidin-4′-ylamino)-N-(3-(trifluoromethyl)phenyl)benzamide] | < 100 nM |
| COc1cc(OC)c(Cl)c(Nc2ncncc2-c2cc(Nc3cc(CN4CCN(C)CC4)ccn3)ncn2)c1Cl [Compound 6, N4′-(2,6-Dichloro-3,5-dimethoxy-phenyl)-N6-[4-(4-methyl-piperazin-1-ylmethyl)-pyridin-2-yl]-[4,5′]bipyrimidinyl-6,4′-diamine] | < 100 nM |
| COc1cc(OC)c(Cl)c(Nc2ncncc2-c2cc(NC(=O)NCCN3CCN(C)CC3)ncn2)c1Cl [Compound 8, 1-[4′-(2,6-Dichloro-3,5-dimethoxy-phenylamino)-[4,5′]bipyrimidinyl-6-yl]-3-[2-(4-methyl-piperazin-1-yl)-ethyl]-urea] | 100 to 250 nM |
| COc1cc(OC)c(Cl)c(Nc2ncncc2-c2cc(Nc3ccc(CN4CCN(CCO)CC4)cn3)ncn2)c1C [Compound 76, 2-(4-{6-[4′-(2-Chloro-3,5-dimethoxy-6-methyl-phenylamino)-[4,5′]bipyrimidinyl-6-ylamino]-pyridin-3-ylmethyl}-piperazin-1-yl)-ethanol] | < 100 nM |
| COc1cc(OC)c(Cl)c(Nc2nccnc2-c2cc(Nc3ccc(CN4CCN(C(=O)CO)CC4)cn3)ncn2)c1Cl [Compound 101] | < 100 nM |
| COc1cc(OC)c(Cl)c(Nc2ncncc2-c2cc(Nc3ccc(CN4CCOCC4)cn3)ncn2)c1Cl [Compound 4, N4′-(2,6-Dichloro-3,5-dimethoxy-phenyl)-N6-(5-morpholin-4-ylmethyl-pyridin-2-yl)-[4,5′]bipyrimidinyl-6,4′-diamine] | < 100 nM |
| COc1cc(OC)c(Cl)c(Nc2ncncc2-c2cc(Nc3ccc(CN4CCCCC4)cn3)ncn2)c1Cl [Compound 22, N4′-(2,6-Dichloro-3,5-dimethoxy-phenyl)-N6-(5-piperidin-1-ylmethyl-pyridin-2-yl)-[4,5′]bipyrimidinyl-6,4′-diamine] | < 100 nM |
| CCN(CC)Cc1ccc(Nc2cc(-c3cncnc3Nc3c(Cl)c(OC)cc(OC)c3Cl)ncn2)nc1 [Compound 28, N4′-(2,6-Dichloro-3,5-dimethoxy-phenyl)-N6-(5-diethylamino-methyl-pyridin-2-yl)-[4,5′]bipyrimidinyl-6,4′-diamine] | < 100 nM |
| CCN1CCN(c2ccc(Nc3cc(-c4cncnc4Nc4cc(OC)cc(OC)c4F)ncn3)nc2)CC1 [Compound 72, N6-[5-(4-Ethyl-piperazin-1-yl)-pyridin-2-yl]-N4′-(2-fluoro-3,5-dimethoxy-phenyl)-[4,5′]bipyrimidinyl-6,4′-diamine] | < 100 nM |
